Results as given in patent US10822317B2, “Methods and compositions for wound healing” (QBiotics Limited, priority 2013, dated 2020).

Key:
[1] = system: human neonatal fibroblasts; experiment: Scratch closure, human neonatal fibroblasts, Method 3 (IncuCyte); format: cell-based
Procedure: (§1) The ability of early. passage neonatal foreskin fibroblasts (NFF) cultured in RPMI 1640-10% foetal calf serum to migrate across a scratch wound made in a confluent monolayer following treatment with purified compounds or plant extracts was determined using one or more of the following three methods.
Cells were seeded and treated in 96-well plates as in Method 2 (5 replicate wells per dilution), except that the scratches were made in one action with a tool having 96, 1 mm thick teflon coated pins (Essen Bioscience Woundmaker). The plate was then placed in a 37° C., 5% CO2 humidified atmosphere in an IncuCyte FLR instrument programmed to photograph each well under phase contrast at 3 hr intervals for 42 hours. The software determined the initial scratch boundaries and their rate of closure. Accelerated wound closure was considered to be significant if the initial rate of closure was >10% of the untreated controls.

[2] = system: human neonatal fibroblasts; experiment: Matrigel invasion assay for migratory ability; format: cell-based; conditions: for Cell count as % of control (Control = no compounds added): 30 ng/mL, 24 hrs, fibroblasts starved 2 days, 1% foetal calf serum, ± standard deviation, two replicate experiments
Source text: Matrigel invasion chambers provide cells with the conditions that allow assessment of their invasive property in vitro. The Matrigel invasion chambers consists of a cell culture companion plate with cell culture inserts containing an 8 micron pore size PET membrane with a thin layer of Matrigel Basement Membrane Matrix. The Matrigel matrix serves as a reconstituted basement membrane in vitro. The layer occludes the pores of the membrane, blocking non-invasive cells from migrating through the membrane. In contrast, invasive cells are able to detach themselves from and invade through the Matrigel matrix and the 8 micron membrane pores. The membrane may be processed for light and electron microscopy and can be easily removed after staining.
The chambers were used according to the manufacturer's instructions, as described below in two studies, to assess the effects of Compounds 1, 2, 5 and 42 on migration of human neonatal fibroblasts. The first study assessed effects of three concentrations (0, 10 and 30 ng/mL) of Compound 1 on neonatal fibroblasts in wells containing media with 10% foetal calf serum. The second study used two concentrations (0 and 30 ng/mL) for each of Compounds 1, 2, 5 and 42 to examine effects on migration of neonatal fibroblasts starved for 2 days prior to treatment and then transferred to media with 1% foetal calf serum.
The package containing the chambers was removed from −20° C. storage and allowed to come to room temperature. Warm (37° C.) bicarbonate based culture medium was added to the interior of the inserts (500 μL) and bottom of wells (750 μL). The chambers containing the Matrigel were allowed to rehydrate for 2 hours in humidified tissue culture incubator, 37° C., 5% CO2 atmosphere. After rehydration, the medium was carefully removed by aspiration without disturbing the layer of Matrigel™ Matrix on the membrane.
Cells were harvested, and resuspended at 20,000 cells per mL. A total of 250 μL of the cell suspension was placed into the interior of the insert (5,000 cells). An extra 250 μL media containing the respective Compounds was then added to the interior of the insert to give the desired final concentrations for each of the two studies. A total of 750 μL of media containing appropriate concentrations of each compound in each treatment were placed in the well under the appropriate insert. The Matrigel chambers were then incubated for 24 hours in a humidified tissue culture incubator, at 37° C., 5% CO2 atmosphere.
Non-invading cells were removed from the upper surface of the membrane by “scrubbing”. A cotton tipped swab was dipped into the insert after removal of the media, and firm pressure applied while the tip was moved over the membrane surface. The scrubbing was repeated with a second swab moistened with PBS. Cells that had invaded to the external surface of the insert were then fixed by placing in […] of 100% methanol for at least 5 mins. Inserts were then transferred to a companion plate containing 500 μL of 0.1% crystal violet in methanol, and stained for at least 15 mins. Inserts were destained by passage through 3 companion plates containing 500 μL water, before being air dried.
The following day, the membrane was removed from the insert housing by inverting the insert and inserting the tip of a sharp scalpel blade through the membrane at the edge adjacent to the housing wall. The insert housing was rotated against the stationary blade and the membrane was released. […]

[3] = system: human neonatal fibroblasts; experiment: Scratch closure, human neonatal fibroblasts, Method 1; format: cell-based
Procedure: as §1
Cells were seeded in 16-mm diameter wells (24-well plates), allowed to become confluent and 2 scratches made in each well using a sterile plastic pipette tip. The medium was removed, the wells washed with phosphate-buffered saline pH 7.2 (PBS) to remove dislodged cells, fresh medium added followed by serial 10-fold dilutions of pure compound or plant extract (2 μL). Incubation was continued for 16 to 30 hr. The experiment was terminated when the scratch edges of untreated cultures had closed approximately 25% of the initial gap. The monolayers were washed with PBS, fixed with ethanol and stained with 0.05% crystal violet. Photomicrographs of each well (EVOS microscope) were printed and each scratch measured at 3 places to determine the mean width. Accelerated wound closure-was considered to be significant if the remaining gap was <40% of the gap of the untreated controls: […]

[4] = system: mouse skin; experiment: Acute inflammatory response in mouse skin; format: in vivo; conditions: male nude mice, s.c. 50 μL of 100 μg/mL; for scarring of the healed site: 14 days; for diameter of affected area of skin: by 24 hr
Procedure: Male nude mice were injected subcutaneously on each flank with 50 μL of solutions of 100 μg/mL of Compounds 1, 2, 5 and 42 respectively in 20% propylene glycol. Each site reddened within 4 hr and by 24 hr the affected area covered approximately 1 cm diameter of skin.

Compound	% closure compared to control ([1]; 30 ng/mL)	% closure compared to control ([1]; 100 ng/mL)	Cell count as % of control (Control = no compounds added) [2]	migratory ability in the Matrigel invasion chamber system vs vehicle alone ([2]; first study, 10 or 30 ng/mL, 10% foetal calf serum, 24 hours)	% closure compared to control ([3]; 30 ng/mL)	% closure compared to control ([3]; 100 ng/mL)	staining pattern / growth of fibroblasts under the microscope ([3]; 24 hours post scratch)	scarring of the healed site [4]	diameter of affected area of skin [4]
CC=C(C)C(=O)OC1C(C)C2(O)C(C3OC3(CO)C(O)C3(O)C(=O)C(C)=CC32)C2C(C)(C)C12OC(=O)C(C)CC (stereo not drawn) [Compound 1, 12-tigloyl-13-(2-methylbutanoyl)-6,7-epoxy-4,5,9,12,13,20-hexahydroxy-1-tigliaen-3-one]	150%	160%	356 ± 141%	increased migratory ability	166%	146%	growing in a multilayered fashion	minimal scarring	approximately 1 cm
CCC(C)C(=O)OC1C(C)C2(O)C(C3OC3(CO)C(O)C3(O)C(=O)C(C)=CC32)C2C(C)(C)C12OC(=O)C(C)CC (stereo not drawn) [Compound 2, 12,13-di-(2-methylbutanoyl)-6,7-epoxy-4,5,9,12,13,20-hexahydroxy-1-tigliaen-3-one]	147%		366 ± 122%		130%	129%		minimal scarring	approximately 1 cm
